Patent publication US5393748A, “Methylenebisphosphonic acid derivatives” (priority 1990, dated 1995)

What was measured:
[1] = test system: parathyroid hormone stimulated bone resorption in mouse calvaria; test: Parathyroid hormone stimulated bone resorption inhibition in vitro in mouse calvaria; assay type: cell-based; details: 100 μm
Description: (§1) The parathyroid hormone stimulated bone resorption inhibition activity of the compounds in vitro in mouse calvaria, as well as the inhibition of retinoid induced bone resorption in thyroparathyroidectomised rats in vivo were determined (Reynolds & Dingle (Calc Tiss Res 1970; 4:339, and Trechsel et al. (J Clin Invest 1987; 80:1679)).

[2] = test system: retinoid induced bone resorption in thyroparathyroidectomised rats; test: Inhibition of retinoid induced bone resorption in thyroparathyroidectomised rats in vivo; set-up: species or system rat; details: 150 μmole/kg
Description: as §1

Structure (SMILES)	Inhibition of resorption (%), in vitro [1] [%]	Inhibition of resorption (%), in vivo [2] [%]
CC(C)OP(=O)(O)C(Sc1ccccn1)P(=O)(O)O (stereo not shown) [[[(2-Pyridinyl)thio]methylidene]bisphosphonic Acid Monoisopropyl Ester]	50	87
O=P(O)(O)C(Cl)(Cl)P(=O)(O)O [Clodronate, reference compound]	–	64
O=P(O)(O)C(Nc1ccccn1)P(=O)(O)O [[[(2-pyridinyl)amino]methylidene]bisphosphonate, reference compound]	56	> 100
CCOP(=O)(O)C(Nc1ccccn1)P(=O)(O)OCC (stereo not shown) [[[(2-Pyridinyl)amino]methylidene]bisphosphonic acid P,P'-diethyl ester]	33	65
Cc1cccnc1NC(P(=O)(O)O)P(=O)(O)O [[[(3-methyl 2-pyridinyl)amino]methylidene]bisphosphonate, reference compound]	51	–
CCOP(=O)(O)C(Nc1ncccc1C)P(=O)(O)OCC (stereo not shown) [[[(3-Methyl-2-pyridinyl)amino]methylidene) Bisphosphonic Acid P,P'-diethyl Ester]	43	66
